Laboratory results published in US8809344B2, “Compounds, compositions, and methods for control of hepatitis C viral infections” (priority 2008, dated 2014).
Where two headings read alike, the source gives them in different places.

What was measured:
Type in all cases: cell-based
[1] = test system: stable genotype 1b (Con1 strain) subgenomic replicon; experiment: EC50 in Clone VI cells, quantitative RT-PCR of HCV RNA; conditions: Hepatitis C virus, 72 hour
Description: Inhibition of HCV replication by compound AP0080978 (enantiomer 2 from Example 1) was also assayed by exposing cells harboring either HCV genotype 1a, HCV genotype 1b, HCV genotype 2a replicons. […] Final DMSO percentage was 1% in a total volume of 1 ml. After a 72 hour treatment period, total RNA was extracted, quantified via RiboGreen™ assay (Invitrogen-Molecular Probes, Eugene, Oreg., USA), and equivalent amounts of RNA were subjected to quantitative RT-PCR to quantify HCV RNA levels. […] For each replicate culture, HCV RNA levels were measured by blot hybridization and normalized to β-actin RNA levels. Cytotoxicity was measured using an established neutral red dye uptake assay (Korba and Gerin (1992) Antiviral Res 19:55; Okuse et al (2005) Antiviral Res 65: 23). […] Activity and toxicity against genotype 2a was evaluated in Huh7 cells harboring a stable hRluc-containing subgenomic genotype 2a replicon containing sequence from both J6 and JFH1 strains. […]
Additional compounds of formula (I) shown in FIG. 1 were also shown to inhibit HCV RNA replication. The effects of various compounds of formula (I) on HCV RNA replicon levels were determined by measuring HCV replicon RNA levels in cells treated with various concentrations of the compounds. […] Total RNA was extracted 72 hours later, and HCV and GAPDH RNA levels were quantified via quantitative RT-PCR. […]

[2] = test system: stable genotype 1b subgenomic replicon (Con1 strain); experiment: Clone II cells, HCV RNA by blot hybridization normalized to β-actin RNA; conditions: Hepatitis C virus, 72 h
Description: (§1) Inhibition of HCV replication by compound AP0080978 (enantiomer 2 from Example 1) was also assayed by exposing cells harboring either HCV genotype 1a, HCV genotype 1b, HCV genotype 2a replicons. […] Final DMSO percentage was 1% in a total volume of 1 ml. After a 72 hour treatment period, total RNA was extracted, quantified via RiboGreen™ assay (Invitrogen-Molecular Probes, Eugene, Oreg., USA), and equivalent amounts of RNA were subjected to quantitative RT-PCR to quantify HCV RNA levels. Activity against genotype 1b was re-confirmed using Clone II cells (U.S. Pat. No. 7,049,428) that contain a stable subgenomic replicon (Con1 strain) with a Arg 1164 Gly adaptive mutation that is distinct from the Ser 1179 Ile adaptive mutation present in Clone VI cells. In this assay, cells were seeded into 96-well plates and treated in quadruplicate with varying concentration of compounds for 72 hours. For each replicate culture, HCV RNA levels were measured by blot hybridization and normalized to β-actin RNA levels. Cytotoxicity was measured using an established neutral red dye uptake assay (Korba and Gerin (1992) Antiviral Res 19:55; Okuse et al (2005) Antiviral Res 65: 23). […] Activity and toxicity against genotype 2a was evaluated in Huh7 cells harboring a stable hRluc-containing subgenomic genotype 2a replicon containing sequence from both J6 and JFH1 strains. […]

[3] = Neutral red dye uptake cytotoxicity assay; conditions: human, Experiment 3
Description: as §1

[4] = test system: stable genotype 1b (Con1 strain) subgenomic replicon in control Clone A cells; experiment: Control Clone A cells, HCV RNA by quantitative RT-PCR; conditions: Hepatitis C virus, 72 h
Description: (§2) In an effort to gain insight into the target of 80978, Clone A cells were selected for resistance to 80978. Clone A cells are a human hepatoma cell line that contains a stable genotype 1b (Con1 strain) subgenomic replicon. Cells were cultured for 12 days in medium containing 10 μM 80978 and 1 mg/ml Geneticin™ (Invitrogen). Medium was changed every 3-4 days to replenish compound, and cells were split as needed to maintain subconfluent cultures. After 12 days of growth in the presence of 10 μM 80978, the concentration of 80978 was increased to 20 μM and cultured for an additional 19 days. Control Clone A cells were grown in parallel in the presence of diluent only. After this culture period, cells were evaluated for response to 80978.
(§3) Control cells and cells that had been cultured in the presence of 80978 were treated in triplicate with 3-fold serial dilutions of compound for 72 hours. At the end of this incubation period, total RNA was extracted, and HCV RNA levels were measured by quantitative RT-PCR using primers that recognize the 3′NTR.

[5] = test system: genotype 1b (Con1 strain) subgenomic replicon in 80978-resistant Clone A cells; experiment: 80978-resistant Clone A cells, HCV RNA by quantitative RT-PCR; conditions: Hepatitis C virus, 72 h
Description: as §2, §3

[6] = test system: all other chimeric replicons and the genotype 2a parental replicon; experiment: Other chimeric replicons and genotype 2a parental replicon in Huh7.5 cells; conditions: Hepatitis C virus
From the text: That NS4B is the target of 80978 was confirmed by a complementary approach. The differential response to 80978 by HCV genotype 1b and 2a replicons allowed the use of chimeric replicons to narrow down the region of the HCV genotype 1b NS4B coding region that confers sensitivity to 80978. The nucleotide sequence of the wild type HCV genotype 2a NS4B is provided as SEQ ID NO: 7 and the wild type HCV genotype 2a NS4B protein sequence is provided as SEQ ID NO:8. Using a plasmid containing an 80978-resistant stable HCV genotype 2a subgenomic reporter replicon cDNA, six replacement, or chimeric constructs were made, where the regions encoding the following amino acids of NS4B were replaced with the regions encoding the corresponding amino acids of NS4B from HCV genotype 1b: (i) 7-254, (ii) 7-52, (iii) 53-254, (iv) 219-254, (v) 7-52 and 219-254, and (vi) 53 to 218. The full-length NS4B protein is 261 amino acids in length and is provided as SEQ ID NO:2. Thus, if any of these segments of NS4B from genotype 1b are sufficient to confer 80978-sensitivity to a genotype 2a HCV replicon, it will render the chimeric genotype 1b/genotype 2a replicon sensitive to the compound.
Response to 80978 was measured initially in unselected cells. […] All of the chimeric and wild type control constructs were responsive to Cyclosporin A (CsA).

Which EC50 ([1]; FIG. 2, compounds other than 80978 as racemates, read-out: EC50 for inhibition of HCV RNA replication) does the source give for O=C(NCc1cccs1)c1nn2c(c1Cl)N[C@H](c1ccco1)C[C@@H]2C(F)(F)F (single isomer, unassigned) [Compound 80978] here?
Its EC50 is 900 nM.

And the EC50 ([1]; Experiment 1, genotype 1b, RT-PCR, read-out: EC50)?
The EC50 was 900 to 1750 nM.

And the EC50 [2]?
Its EC50 is 7300 nM.

And the CC50 at 72 h [3]?
The CC50 at 72 h was greater than 20000 nM.

What about the EC50 [4] of the same compound?
Its EC50 is 1760 nM.

What about the EC50 [5] of the same compound?
Its EC50 is greater than 25000 nM.

What about the EC50 [6] of the same compound?
The EC50 was greater than 20000 nM.
